# What was measured:
# [1] = Stability test of anhydrous form in climatic chamber (50% R.H., about 25° C., 24 hours); format: physicochemical
# Description: (§1) • Instrument: Mettler DL38, V30 or equivalent • Electrode: Double platinum pin electrode DM 143-SC for Karl Fischer titration. • Titrant: Karl Fischer reagent 5 mg H2O/ml • Solvent: 30 ml of methanol previously neutralized with Karl Fischer reagent. • Procedure: about 0.2 g of the product, accurately weighed, were dissolved in the solvent and titrated with the Karl Fischer reagent.
# [2] = target: T1, CXCR1 (Homo sapiens, UniProt P25024); settings: background, literature; cited from earlier work
# T1 sequence (P25024 1-350): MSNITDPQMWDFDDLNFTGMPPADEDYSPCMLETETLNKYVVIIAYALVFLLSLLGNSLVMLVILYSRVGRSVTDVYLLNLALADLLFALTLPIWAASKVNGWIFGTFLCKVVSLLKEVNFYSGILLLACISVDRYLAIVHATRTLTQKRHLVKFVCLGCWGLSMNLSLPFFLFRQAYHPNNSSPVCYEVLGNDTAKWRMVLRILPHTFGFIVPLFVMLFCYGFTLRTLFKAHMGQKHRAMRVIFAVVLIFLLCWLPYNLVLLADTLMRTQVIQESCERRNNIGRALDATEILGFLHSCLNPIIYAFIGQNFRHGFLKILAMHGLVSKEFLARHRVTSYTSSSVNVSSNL
# [3] = target: T2, CXCR2 (Homo sapiens, UniProt P25025); settings: background, literature; cited from earlier work
# T2 sequence (P25025 1-360): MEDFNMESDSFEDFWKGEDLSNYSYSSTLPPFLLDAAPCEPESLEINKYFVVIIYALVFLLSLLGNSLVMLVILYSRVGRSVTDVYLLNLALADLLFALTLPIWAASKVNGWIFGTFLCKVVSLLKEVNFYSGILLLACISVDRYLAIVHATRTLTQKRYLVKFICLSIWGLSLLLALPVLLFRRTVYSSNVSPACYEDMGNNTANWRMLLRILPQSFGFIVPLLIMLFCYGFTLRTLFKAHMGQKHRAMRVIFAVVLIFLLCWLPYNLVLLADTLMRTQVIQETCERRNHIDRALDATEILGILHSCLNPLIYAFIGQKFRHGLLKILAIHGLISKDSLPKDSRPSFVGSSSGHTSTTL
# [4] = background, literature; cited from earlier work
# [5] = Stability test under accelerated conditions B (40° C. and 75% R.H.); format: physicochemical; parameters: key to Appearance: Compl.: Compl: compliant
# Description: • Apparatus: Agilent HP 1100, HP 1200 or equivalent HPLC system with UV detector • Detector: wavelength: 220 nm • Column: BDS Hypersyl C18, 250×4.6 mm, 5 μm (Thermo) or equivalent • Column temperature: 35° C. • Mobile phase: (A) Buffer solution KH2PO4 0.025M (pH 3.0). Procedure: dissolve 3.4 g of potassium dihydrogen phosphate in water and dilute to 1000 ml with water; adjust to pH 3.0 with dilute phosphoric acid or with potassium hydroxide solutions. (B) acetonitrile. • Flow: 1.3 ml/minute • Injection Volume: 10 μl • Time between injections: 26 min • Diluent: H2O/CH3CN (40/60) • Relative retention time: DF 2755 Rt 11.8 min • Gradient: Table 2
# • Chromatographic conditions • Apparatus: Agilent HP 1100, HP 1200 or equivalent HPLC system with UV detector • Detector: wavelength: 294 nm • Column: Chiralpak AS-RH, 150×4.6 mm […] (Daicel) or equivalent • Column temperature: 35° C. • Mobile phase: (A) Buffer solution KH2PO4 0.025M (pH 3.0) Procedure: dissolve 3.4 g of potassium dihydrogen phosphate in water and dilute to 1000 ml with water; adjust to pH 3.0 with dilute phosphoric acid or with potassium hydroxide solutions; (B) acetonitrile • Flow: 0.7 ml/minute • Injection volume: 10 μl • Time between injections: 45 min • Diluent: H2O/CH3CN (40/60) • Eluent: 70% Mobile phase A, 30% Mobile phase B
# as §1
# (§2) The analysis was carried out on three samples and the results averaged. The limit had to be not more than 10.0%.
# (§3) The monohydrate DF2755A was then subjected to stability tests under the following conditions: • A) at 30° C. and 65% R.H. (up to 18 months) and • B) at 40° C. and 75% R.H. (accelerated stability up to 12 months).
# (§4) The samples were analysed for appearance, water content, HPLC purity, HPLC assay, HPLC enantiomeric purity and DSC thermal behaviour.
# [6] = Stability test under conditions A (30° C. and 65% R.H.); format: physicochemical
# Description: as §3, §4
# [7] = Water content by Karl-Fischer of the prepared product; format: physicochemical; settings: product as prepared by controlled hydration
# Description: as §1
# [formula] • where • V=ml of the Karl Fischer reagent used in the titration • e=equivalent of the Karl Fischer reagent (mg H2O/ml) • w=weight of the sample in g
# as §2
# [8] = Particle size distribution (Malvern Mastersizer 3000, Aero S); format: physicochemical; settings: powder of Example 3A
# Description: Particle Size Distribution was measured by Malvern Mastersizer 3000 using Aero S accessory.
# [9] = Tapped and bulk density (Ph. Eur. 2.9.34), compressibility index, Hausner ratio; format: physicochemical
# Description: Tapped and Bulk Density were determined with a density tester ERWEKA SMV 102 (Heusenstamm, Germany) according to European Pharmacopeia (Ph. Eur. 2.9.34).
# Compressibility Index was calculated according to the formula:
# C.I.=100×(tapped density−bulk density)/tapped density.
# Hausner ratio was calculated according to the formula:
# H.r.=tapped density/bulk density
# [10] = 50% R.H., about 25° C., 24 hours
smiles,measurement,setting,value
"C[C@H](C(=O)[O-])c1ccc(Nc2nc(C(F)(F)F)cs2)cc1.[Na+] [anhydrous DF2755A, sodium (2S)-2-(4-{[4-(trifluoromethyl)-1,3-thiazol-2-yl]amino}phenyl) propanoate]",Appearance after exposure,[1]; [10],sticky hydrated solid
same,Water content measured by Karl Fischer analysis after exposure,[1]; [10],17%
same,Amount of by-product of hydroxylation at position 4 of the thiazole ring (1H-NMR),"[1]; after exposure to humidity, about 25° C., 24 hours",about 50 % mol/mol
same,Hygroscopicity,"[1]; anhydrous form, absorbs water from the environment",highly hygroscopic
same,Stability conclusion,"[1]; under the test conditions (50% R.H., about 25° C., 24 hours)",both physically and chemically unstable
same,Inhibitory activity of CXCR1 receptor,[2],selective dual potent inhibitory activity
same,Inhibitory activity of CXCR2 receptor,[3],selective dual potent inhibitory activity
same,Oral pharmacokinetic profile,[4],favorable
"C[C@H](C(=O)[O-])c1ccc(Nc2nc(C(F)(F)F)cs2)cc1.O.[Na+] [monohydrate DF2755A, crystalline monohydrate sodium (2S)-2-(4-{[4-(trifluoromethyl)-1,3-thiazol-2-yl]amino}phenyl) propanoate]",Assay % (HPLC),"[5]; 40° C./75% R.H., 0 months",97.40%
same,DFL23803 (HPLC) by-product content,"[5]; 40° C./75% R.H., 0 months",≤0.11%
same,Enantiomeric purity % (HPLC): DF2703Y content,"[5]; 40° C./75% R.H., 0 months",1.0%
same,Total impurities content % (HPLC),"[5]; 40° C./75% R.H., 0 months",0.03%
same,Water content (K.F %),"[5]; 40° C./75% R.H., 0 months",5.27%
same,Appearance,"[5]; 40° C./75% R.H., 0 months, limit white to ivory powder",Compl.
same,Appearance,"[5]; 40° C./75% R.H., 1 month",Compl.
same,Assay % (HPLC),"[5]; 40° C./75% R.H., 1 month",96.93%
same,DFL23803 (HPLC) by-product content,"[5]; 40° C./75% R.H., 1 month",≤0.11%
same,Enantiomeric purity % (HPLC): DF2703Y content,"[5]; 40° C./75% R.H., 1 month",1.0%
same,Total impurities content % (HPLC),"[5]; 40° C./75% R.H., 1 month",0.03%
same,Water content (K.F %),"[5]; 40° C./75% R.H., 1 month",5.27%
same,Appearance,"[5]; 40° C./75% R.H., 3 months",Compl.
same,Assay % (HPLC),"[5]; 40° C./75% R.H., 3 months",97.67%
same,DFL23803 (HPLC) by-product content,"[5]; 40° C./75% R.H., 3 months",≤0.11%
same,Enantiomeric purity % (HPLC): DF2703Y content,"[5]; 40° C./75% R.H., 3 months",1.0%
same,Total impurities content % (HPLC),"[5]; 40° C./75% R.H., 3 months",0.03%
same,Water content (K.F %),"[5]; 40° C./75% R.H., 3 months",5.12%
same,Appearance,"[5]; 40° C./75% R.H., 6 months",Compl.
same,Assay % (HPLC),"[5]; 40° C./75% R.H., 6 months",96.94%
same,DFL23803 (HPLC) by-product content,"[5]; 40° C./75% R.H., 6 months",≤0.11%
same,Enantiomeric purity % (HPLC): DF2703Y content,"[5]; 40° C./75% R.H., 6 months",1.0%
same,Total impurities content % (HPLC),"[5]; 40° C./75% R.H., 6 months",0.03%
same,Water content (K.F %),"[5]; 40° C./75% R.H., 6 months",4.95%
same,Appearance,"[5]; 40° C./75% R.H., 12 months",Compl.
same,Assay % (HPLC),"[5]; 40° C./75% R.H., 12 months",100.3%
same,DFL23803 (HPLC) by-product content,"[5]; 40° C./75% R.H., 12 months",≤0.11%
same,Enantiomeric purity % (HPLC): DF2703Y content,"[5]; 40° C./75% R.H., 12 months",1.0%
same,Total impurities content % (HPLC),"[5]; 40° C./75% R.H., 12 months",0.02%
same,Water content (K.F %),"[5]; 40° C./75% R.H., 12 months",5.17%
same,Time completely stable,"[5]; accelerated conditions B, 40° C. and 75% R.H.",≥ 12 months
same,DSC profile over time,"[5]; conditions B, 40° C./75% R.H.",substantially the same DSC profile over time
same,Hygroscopicity,[5]; unchanged water content for at least 12 months under accelerated stability conditions,not hygroscopic
same,Time completely stable,[6]; 30° C. and 65% R.H.,≥ 18 months
same,DSC profile over time,[6]; 30° C./65% R.H.,substantially the same DSC profile over time
same,Water content by Karl Fisher method,[7],5.27 % by weight
same,Particle size distribution D(0.1),[8],2.09 μm
same,Particle size distribution D(0.5),[8],7.86 μm
same,Particle size distribution D(0.9),[8],25.42 μm
same,Compressibility index,[9]; 100×(tapped density−bulk density)/tapped density,30.7
same,Bulk density,[9]; powder of Example 3A,0.178 g/mL
same,Tapped density,[9]; powder of Example 3A,0.256 g/mL
same,Hausner ratio,[9]; tapped density/bulk density,1.44
